In patent publication US20220370382A1, “METHODS AND COMPOSITIONS FOR CORRECTION OF AUTONOMIC DYSFUNCTIONS” (priority 2021, published 2022):

Tests used:
[1] = test system: effector organs of the vagus nerve; experiment: Stimulation of the effector organs of the vagus nerve in patients tested; format: in vivo, human
Excerpt: Certain ingredients of the compound (a choline compound, an acetylcholinesterase inhibitor and Acetyl-L-Carnitine) have been used to reduce inflammation, to assist those suffering from metabolic insufficiencies, and for healthy memory and mental function, and numerous studies have been published involving cognition, dementia, age-related memory loss and neurodegeneration with these ingredients. (U.S. Pat. No. 6,537,969 B1, Patent No. US 2008/0213401). […] It is not intuitive or obvious that any two of these ingredients can also be effective and that any two of these ingredients can restore parasympathetic nerve function even when the postganglionic nerve is not viable for any reason, by directly stimulating the effector organs themselves.
Driscoll found the use of nicotine can diagnose pre-ganglionic vagus nerve dysfunction. […] Nicotine (transdermal, suppository, or) can be used to discern receptor damage from either direct nerve damage or neurotransmitter dysfunction. These forms of nicotine can be used to verify that the organ is capable of responding, to test the cholinergic receptors or postganglionic nerve, or can be used for short periods of time to assist with said organ function (ileocecal valve, gastroparesis/constipation, gallbladder, pancreas, gastric acid secretion). No part of the vagus nerve is required for the use of nicotine to be effective because the invention can effectively stimulate the receptor on the organ itself. […]

[2] = test system: patients with autonomic dysfunction and/or connective tissue disorders; experiment: Patient case studies: other signs (tachycardia, dry eyes, light sensitivity, Roth spot, gallbladder function, pseudotumor cerebri symptoms); format: in vivo, human; details: person, POTS, Idiopathic Intracranial Hypertension; acetazolamide 250 mg three times per day
Procedure: They also suffered with poor digestion, dry eyes, and fatigue.
Most every day (usually in the evenings) they experienced pseudo seizures lasting from 30 minutes to three hours. These began with their eyes rolling up and their eyelids fluttering, then they progressed to full body twitching and spasming. These pseudo seizures continued for over three years, but physicians were unable to locate the source of their symptoms. A Roth spot in their ocular fundus in addition to numerous symptoms of nutrient malabsorption were noted. They suffered with light sensitivity secondary to large pupils (5.5 mm), weight loss, extreme fatigue, constipation, tachycardia, and dry eyes.
Gallbladder removal surgery was recommended.

[3] = test system: patients with autonomic dysfunction and/or connective tissue disorders; details: person, POTS, Idiopathic Intracranial Hypertension; acetazolamide 250 mg three times per day
Excerpt: Acetazolamide was prescribed for high intracranial pressure.

[4] = person, Ehlers-Danlos syndrome, given for a hospital-induced infection
[5] = cited from earlier work

In the case of CN1CCCC1c1cccnc1 (centres unmarked) [oral nicotine, nicotine], the “stimulation of the effector organs of the vagus nerve / restoration of vagus nerve function” value ([1]; patients tested, ingredient used alone, or nicotine by the stated route (transdermal 1-21 mg)) is reported as “not effective”.
For Cc1ncc(C[n+]2csc(CCO)c2C)c(N)n1 [Thiamin], the “autonomic dysfunction or disorders of the effector organs of the parasympathetic nervous system” value ([1]; supplementation alone) was “will not eliminate”.
In the case of C[N+](C)(C)CC(O)CC(=O)[O-] (centres unmarked) [carnitine], the “organ function when added to the compound” value ([1]; case studies, patients with organ malfunction secondary to poor vagus nerve function) is reported as “better organ function”.
For CC(=O)Nc1nnc(S(N)(=O)=O)s1 [acetazolamide], the pseudotumor cerebri symptoms [2] was “relieved” and the visual snow [3] was “did not improve”.
With CN[C@H](CC(C)C)C(=O)N[C@H]1C(=O)N[C@@H](CC(N)=O)C(=O)N[C@H]2C(=O)N[C@H]3C(=O)N[C@H](C(=O)N[C@H](C(=O)O)c4cc(O)cc(O)c4-c4cc3ccc4O)[C@H](O)c3ccc(c(Cl)c3)Oc3cc2cc(c3O[C@@H]2O[C@H](CO)[C@@H](O)[C@H](O)[C@H]2O[C@H]2C[C@](C)(N)[C@H](O)[C@H](C)O2)Oc2ccc(cc2Cl)[C@H]1O [Vancomycin] the “adverse reaction to antibiotic” value [4] was “developed hives and dramatic flushing”.
For CN1CCCC1c1cccnc1 (centres unmarked) [Nicotine], the lethal dosage ([5]; human, in vivo) is given as 60 mg and the “side effects on chronic use” value ([5]; treatment of parasympathetic and vagus nerve dysfunction on a chronic basis) is given as “dermatographia, hives, itching, and welting”.
